Values joined by “and” are separate entries in the source; they are usually repeats but may differ in a detail not shown here. Identical values can stand only once.
What was measured:
Rattus norvegicus [1] = experiment: Momoamine and metabolic levels observed 1 week following acute dosing against at a dose of 20 mg/kg Frontal cortex 5-HT; type: ADME, organism-based; parameters: dose 20 mg/kg; settings: in vivo, 168 h
Rattus norvegicus [2] = experiment: Momoamine and metabolic levels observed 2 weeks following sub-acute dosing against Frontal cortex NE; type: ADME, organism-based; settings: in vivo, 336 h
Rattus norvegicus [3] = experiment: Momoamine and metabolic levels observed 1 week following acute dosing against at a dose of 20 mg/kg Frontal cortex NE; type: ADME, organism-based; parameters: dose 20 mg/kg; settings: in vivo, 168 h
Rattus norvegicus [4] = experiment: Momoamine and metabolic levels observed 1 week following acute dosing at a dose of 10 mg/kg Frontal cortex 5-HIAA; type: ADME, organism-based; parameters: dose 10 mg/kg; settings: in vivo, 168 h
Rattus norvegicus [5] = experiment: Momoamine and metabolic levels observed at 3 hr postdrug against, at a dose of 20 mg/kg Frontal cortex DA; type: ADME, organism-based; parameters: dose 20 mg/kg; settings: in vivo
Rattus norvegicus [6] = experiment: Momoamine and metabolic levels observed 2 weeks following sub-acute dosing against Frontal cortex 5-HT; type: ADME, organism-based; settings: in vivo, 336 h
Rattus norvegicus [7] = experiment: Momoamine and metabolic levels observed 2 weeks following sub-acute dosing against Frontal cortex DA; type: ADME, organism-based; settings: in vivo, 336 h
Rattus norvegicus [8] = experiment: Momoamine and metabolic levels observed 1 week following acute dosing against at a dose of 10 mg/kg Hippocampus NE; type: ADME, organism-based; parameters: dose 10 mg/kg; settings: in vivo, 168 h
Rattus norvegicus [9] = experiment: Momoamine and metabolic levels observed at 3 hr postdrug against, at a dose of 20 mg/kg Frontal cortex HVA; type: ADME, organism-based; parameters: dose 20 mg/kg; settings: in vivo
Rattus norvegicus [10] = experiment: Percentage of non disrupted rats that selected the drug lever, when given at a dose of 0.5 mg/kg in S-Amphetamine-Trained rats; type: functional
Rattus norvegicus [11] = experiment: Momoamine and metabolic levels observed 1 week following acute dosing at a dose of 10 mg/kg Frontal cortex HVA; type: ADME, organism-based; parameters: dose 10 mg/kg; settings: in vivo, 168 h
Rattus norvegicus [12] = experiment: Momoamine and metabolic levels observed 2 weeks following sub-acute dosing against Hippocampus 5-HT; type: ADME, organism-based; settings: in vivo, 336 h
Rattus norvegicus [13] = experiment: Momoamine and metabolic levels observed at 3 hr postdrug against, at a dose of 20 mg/kg Hippocampus 5-HIAA; type: ADME, organism-based; parameters: dose 20 mg/kg; settings: in vivo
Rattus norvegicus [14] = experiment: Percentage of non disrupted rats that selected the drug lever, when given at a dose of 1.00 mg/kg in […]-Trained rats; type: functional
Rattus norvegicus [15] = species: Rattus norvegicus; experiment: Compound was evaluated for the uptake inhibition of [3H]-5-HT in rats; type: functional
Rattus norvegicus [16] = experiment: Momoamine and metabolic levels observed at 3 hr postdrug against, at a dose of 20 mg/kg Frontal cortex NE; type: ADME, organism-based; parameters: dose 20 mg/kg; settings: in vivo
Rattus norvegicus [17] = experiment: Percentage of non disrupted rats that selected the drug lever, when given at a dose of 2.00 mg/kg; type: functional
Rattus norvegicus [18] = experiment: Percentage of non disrupted rats that selected the drug lever, when given at a dose of 1.00 mg/kg; type: functional
[19] = biological target: Sodium-dependent serotonin transporter (Rattus norvegicus) (UniProt P31652); experiment: Number of uptake sites for [3H]paroxetine receptor binding after sub-acute dosing against Frontal cortex; type: tissue-based
Sequence of Sodium-dependent serotonin transporter (Rattus norvegicus) (P31652 whole entry): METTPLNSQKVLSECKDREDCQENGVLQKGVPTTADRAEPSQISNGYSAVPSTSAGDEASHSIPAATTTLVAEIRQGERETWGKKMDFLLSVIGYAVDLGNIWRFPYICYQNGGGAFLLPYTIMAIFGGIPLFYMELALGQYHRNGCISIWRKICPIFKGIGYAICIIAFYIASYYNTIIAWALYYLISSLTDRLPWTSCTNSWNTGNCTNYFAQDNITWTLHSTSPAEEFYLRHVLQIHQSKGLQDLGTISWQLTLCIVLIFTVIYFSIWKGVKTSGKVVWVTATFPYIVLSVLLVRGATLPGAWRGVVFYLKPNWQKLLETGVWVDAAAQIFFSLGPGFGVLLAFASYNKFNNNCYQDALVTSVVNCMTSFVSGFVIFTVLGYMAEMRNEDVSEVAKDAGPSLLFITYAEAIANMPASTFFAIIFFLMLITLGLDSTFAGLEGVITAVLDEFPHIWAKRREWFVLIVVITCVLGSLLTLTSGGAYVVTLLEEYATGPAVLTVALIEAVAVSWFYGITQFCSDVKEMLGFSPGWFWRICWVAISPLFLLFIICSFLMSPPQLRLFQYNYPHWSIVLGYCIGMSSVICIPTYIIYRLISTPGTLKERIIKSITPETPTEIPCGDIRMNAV

Rattus norvegicus [20] = experiment: Momoamine and metabolic levels observed 1 week following acute dosing against at a dose of 20 mg/kg Frontal cortex 5-HIAA; type: ADME, organism-based; parameters: dose 20 mg/kg; settings: in vivo, 168 h
Rattus norvegicus [21] = experiment: Momoamine and metabolic levels observed 2 weeks following sub-acute dosing against Hippocampus 5-HIAA; type: ADME, organism-based; settings: in vivo, 336 h
[22] = biological target: Sodium-dependent serotonin transporter (Rattus norvegicus) (UniProt P31652); experiment: Number of uptake sites for [3H]paroxetine receptor binding after sub-acute dosing against Hippocampus
Rattus norvegicus [23] = experiment: Momoamine and metabolic levels observed 1 week following acute dosing against at a dose of 20 mg/kg Hippocampus 5-HIAA; type: ADME, organism-based; parameters: dose 20 mg/kg; settings: in vivo, 168 h
Rattus norvegicus [24] = experiment: Momoamine and metabolic levels observed 1 week following acute dosing against at a dose of 10 mg/kg Hippocampus 5-HT; type: ADME, organism-based; parameters: dose 10 mg/kg; settings: in vivo, 168 h
Rattus norvegicus [25] = experiment: Momoamine and metabolic levels observed 1 week following acute dosing against at a dose of 20 mg/kg Frontal cortex DOPAC; type: ADME, organism-based; parameters: dose 20 mg/kg; settings: in vivo, 168 h
Rattus norvegicus [26] = experiment: Momoamine and metabolic levels observed 1 week following acute dosing at a dose of 10 mg/kg Frontal cortex 5-HT; type: ADME, organism-based; parameters: dose 10 mg/kg; settings: in vivo, 168 h
Rattus norvegicus [27] = experiment: Percentage of non disrupted rats that selected the drug lever, when given at a dose of 2.00 mg/kg in […]-Trained rats; type: functional
Rattus norvegicus [28] = experiment: Momoamine and metabolic levels observed 2 weeks following sub-acute dosing against Frontal cortex DOPAC; type: ADME, organism-based; settings: in vivo, 336 h
Rattus norvegicus [29] = experiment: Effective dose was evaluated for drug discrimination in I-trained rats, when given at a dose of 1.16 micro mol/kg; type: functional
Rattus norvegicus [30] = experiment: Momoamine and metabolic levels observed 1 week following acute dosing against at a dose of 20 mg/kg Hippocampus NE; type: ADME, organism-based; parameters: dose 20 mg/kg; settings: in vivo, 168 h
Rattus norvegicus [31] = experiment: Percentage of non disrupted rats that selected the drug lever, when given at a dose of 0.5 mg/kg in […]-Trained rats; type: functional
Rattus norvegicus [32] = experiment: Effective dose was evaluated for drug discrimination in I-trained rats, when given at a dose of 0.25 mg/kg; type: functional
Rattus norvegicus [33] = experiment: Momoamine and metabolic levels observed 1 week following acute dosing against at a dose of 20 mg/kg Hippocampus 5-HT; type: ADME, organism-based; parameters: dose 20 mg/kg; settings: in vivo, 168 h
Rattus norvegicus [34] = experiment: Percentage of non disrupted rats that selected the drug lever, when given at a dose of 0.25 mg/kg; type: functional
Rattus norvegicus [35] = experiment: Momoamine and metabolic levels observed 2 weeks following sub-acute dosing against Frontal cortex HVA; type: ADME, organism-based; settings: in vivo, 336 h
Rattus norvegicus [36] = experiment: Effective dose was evaluated for drug discrimination in I-trained rats, when given at a dose of 0.25 micro mol/kg; type: functional
Rattus norvegicus [37] = experiment: Momoamine and metabolic levels observed 2 weeks following sub-acute dosing against Frontal cortex 5-HIAA; type: ADME, organism-based; settings: in vivo, 336 h
Rattus norvegicus [38] = experiment: Percentage of non disrupted rats that selected the drug lever, when given at a dose of 0.5 mg/kg; type: functional
Rattus norvegicus [39] = experiment: Percentage of non disrupted rats that selected the drug lever, when given at a dose of 2.50 mg/kg in […]-Trained rats; type: functional; settings: dose 2.5 mg/kg
Rattus norvegicus [40] = experiment: Momoamine and metabolic levels observed at 3 hr postdrug against, at a dose of 20 mg/kg Frontal cortex 5-HT; type: ADME, organism-based; parameters: dose 20 mg/kg; settings: in vivo
Rattus norvegicus [41] = experiment: Percentage of non disrupted rats that selected the drug lever, when given at a dose of 0.25 mg/kg in S-Amphetamine-Trained rats; type: functional
Rattus norvegicus [42] = experiment: Momoamine and metabolic levels observed 1 week following acute dosing at a dose of 10 mg/kg Frontal cortex NE; type: ADME, organism-based; parameters: dose 10 mg/kg; settings: in vivo, 168 h
Rattus norvegicus [43] = experiment: Momoamine and metabolic levels observed at 3 h postdrug against, at a dose of 20 mg/kg Hippocampus 5-HT; type: ADME, organism-based; parameters: dose 20 mg/kg; settings: in vivo
Rattus norvegicus [44] = experiment: Momoamine and metabolic levels observed 1 week following acute dosing against at a dose of 20 mg/kg Frontal cortex HVA; type: ADME, organism-based; parameters: dose 20 mg/kg; settings: in vivo, 168 h
Rattus norvegicus [45] = experiment: Momoamine and metabolic levels observed 1 week following acute dosing against at a dose of 20 mg/kg Frontal cortex DA; type: ADME, organism-based; parameters: dose 20 mg/kg; settings: in vivo, 168 h
Rattus norvegicus [46] = experiment: Momoamine and metabolic levels observed 1 week following acute dosing at a dose of 10 mg/kg Frontal cortex DOPAC; type: ADME, organism-based; parameters: dose 10 mg/kg; settings: in vivo, 168 h
Rattus norvegicus [47] = experiment: Percentage of non disrupted rats that selected the drug lever, when given at a dose of 1.00 mg/kg in S-Amphetamine-Trained rats; type: functional
Rattus norvegicus [48] = experiment: Momoamine and metabolic levels observed 1 week following acute dosing at a dose of 10 mg/kg Frontal cortex DA; type: ADME, organism-based; parameters: dose 10 mg/kg; settings: in vivo, 168 h
Rattus norvegicus [49] = experiment: Momoamine and metabolic levels observed at 3 hr postdrug against, at a dose of 20 mg/kg Frontal cortex 5-HIAA; type: ADME, organism-based; parameters: dose 20 mg/kg; settings: in vivo
Rattus norvegicus [50] = experiment: Momoamine and metabolic levels observed at 3 hr postdrug against, at a dose of 20 mg/kg Hippocampus NE; type: ADME, organism-based; parameters: dose 20 mg/kg; settings: in vivo
Rattus norvegicus [51] = experiment: Momoamine and metabolic levels observed at 3 hr postdrug against, at a dose of 20 mg/kg Frontal cortex DOPAC; type: ADME, organism-based; parameters: dose 20 mg/kg; settings: in vivo
Rattus norvegicus [52] = experiment: Momoamine and metabolic levels observed 2 weeks following sub-acute dosing against Hippocampus NE; type: ADME, organism-based; settings: in vivo, 336 h
Rattus norvegicus [53] = experiment: Momoamine and metabolic levels observed 1 week following acute dosing at a dose of 10 mg/kg Hippocampus 5-HIAA; type: ADME, organism-based; parameters: dose 10 mg/kg; settings: in vivo, 168 h
Rattus norvegicus [54] = species: Rattus norvegicus; experiment: Effective dose was evaluated for drug discrimination in I-trained rats; type: functional

COc1ccc2c(c1C)CC(N)C2 (stereo not given)
Metabolite level (Rattus norvegicus [1]): 316 | Metabolite level (Rattus norvegicus [2]): 568 | Metabolite level (Rattus norvegicus [3]): 509 | Metabolite level (Rattus norvegicus [4]): 210 | Metabolite level (Rattus norvegicus [5]): 113 | Metabolite level (Rattus norvegicus [6]): 415 | Metabolite level (Rattus norvegicus [7]): 92 | Metabolite level (Rattus norvegicus [8]): 633 | Metabolite level (Rattus norvegicus [9]): 112 | SDL (Rattus norvegicus [10]): 33% | Metabolite level (Rattus norvegicus [11]): 74 | Metabolite level (Rattus norvegicus [12]): 434 | Metabolite level (Rattus norvegicus [13]): 272 | SDL (Rattus norvegicus [14]): 13% | IC50 (Rattus norvegicus [15]): 212 nM | Metabolite level (Rattus norvegicus [16]): 558 | SDL (Rattus norvegicus [17]): 100% | SDL (Rattus norvegicus [18]): 75% | No. of uptake sites [19]: 13.6 | Metabolite level (Rattus norvegicus [20]): 240 | Metabolite level (Rattus norvegicus [21]): 518 | No. of uptake sites [22]: 15.6 | Metabolite level (Rattus norvegicus [23]): 476 | Metabolite level (Rattus norvegicus [24]): 312 | Metabolite level (Rattus norvegicus [25]): 35 | Metabolite level (Rattus norvegicus [26]): 312 | SDL (Rattus norvegicus [27]): 38% | Metabolite level (Rattus norvegicus [28]): 54 | ED50 (Rattus norvegicus [29]): 3.77 µmol/kg | Metabolite level (Rattus norvegicus [30]): 583 | SDL (Rattus norvegicus [31]): 11% | ED50 (Rattus norvegicus [32]; Rattus norvegicus, read-out: ED50): 0.81 mg/kg | ED50 (Rattus norvegicus [32]; dose 0.25 mg/kg): 0.56 mg/kg | Metabolite level (Rattus norvegicus [33]): 462 | SDL (Rattus norvegicus [34]): 13% | Metabolite level (Rattus norvegicus [35]): 59 | ED50 (Rattus norvegicus [36]): 2.63 µmol/kg | Metabolite level (Rattus norvegicus [37]): 256 | SDL (Rattus norvegicus [38]): 25% | SDL (Rattus norvegicus [39]): 50% | Metabolite level (Rattus norvegicus [40]): 148 | SDL (Rattus norvegicus [41]): 17% | Metabolite level (Rattus norvegicus [42]): 414 | Metabolite level (Rattus norvegicus [43]): 256 | Metabolite level (Rattus norvegicus [44]): 65 | Metabolite level (Rattus norvegicus [45]): 81 | Metabolite level (Rattus norvegicus [46]): 36 | SDL (Rattus norvegicus [47]): 50% | Metabolite level (Rattus norvegicus [48]): 88 | Metabolite level (Rattus norvegicus [49]): 146 | Metabolite level (Rattus norvegicus [50]): 646 | Metabolite level (Rattus norvegicus [51]): 40 | Metabolite level (Rattus norvegicus [52]): 716 | Metabolite level (Rattus norvegicus [53]): 434

CC[C@@H](Cc1ccc2c(c1)OCO2)NC
ED50 (Rattus norvegicus [54]): 0.79 mg/kg and 3.25 µmol/kg
